Source: article PMC12040169 (PLOS Biology, 2025)

Test: in vitro
Settings: human, hela cells, % viability

SMILES	viability at 28.5 h, 10 µM
Cc1csc2ncc(C(=O)Nc3ccc(OC(F)(F)F)cc3)c(=O)n12 [CBK287457]	108%
Cc1csc2ncc(C(=O)Nc3ccccc3C#N)c(=O)n12 [CBK287458]	95.3%
Cc1csc2ncc(C(=O)Nc3ccc(Cl)c(Cl)c3)c(=O)n12 [CBK287459]	104%
Cc1ccc(NC(=O)c2cnc3scc(C)n3c2=O)cc1C [CBK287461]	108%
Cc1c(Cl)cccc1NC(=O)c1cnc2scc(C)n2c1=O [CBK287463]	117%
Cc1ccc(Cl)cc1NC(=O)c1cnc2scc(C)n2c1=O [CBK287464]	98.7%
Cc1csc2ncc(C(=O)Nc3cc(C(F)(F)F)ccc3Cl)c(=O)n12 [CBK287465]	94.4%
O=C(CCn1c(=O)oc2ccccc21)Nc1ccncc1 [CBK287466]	92.5%
COc1cccc2sc(Nc3nc4ccc(NC(C)=O)cc4s3)nc12 [CBK287468]	94.9%
COc1cccc2sc(Nc3nc4ccc(S(C)(=O)=O)cc4s3)nc12 [CBK287472]	104%
COc1cccc2sc(Nc3nnc(-c4cccs4)o3)nc12 [CBK287473]	85.4%
CCOc1cccc2sc(Nc3nc4ccc(NC(C)=O)cc4s3)nc12 [CBK287474]	90.8%
CC(=O)Nc1ccc2nc(Nc3nc4c(F)cccc4s3)sc2c1 [CBK287475]	89.8%
CS(=O)(=O)c1ccc2nc(Nc3nc4c(F)cccc4s3)sc2c1 [CBK287478]	101%
COc1ccc2nc(Nc3nc(-c4cccnc4)cs3)sc2c1 [CBK287482]	89.1%
COc1ccc2nc(Nc3nc(C)c(C(C)=O)s3)sc2c1 [CBK287483]	94.8%
COc1ccc2nc(NCc3ccccc3)sc2c1 [CBK287485]	66.8%
COc1ccc2nc(Nc3nnc(-c4ccco4)o3)sc2c1 [CBK287486]	102%
Fc1ccc2nc(Nc3nc(-c4ccncc4)cs3)sc2c1 [CBK287487]	105%
CC(C)(C)c1csc(Nc2nc3cc4c(cc3s2)OCO4)n1 [CBK287491]	93.9%
c1coc(-c2nnc(Nc3nc4cc5c(cc4s3)OCO5)o2)c1 [CBK287492]	89.8%
COc1ccc2nc(N3CCc4ccccc4C3)sc2c1 [CBK287493]	102%
c1c2c(cc3sc(N4CCCC4)nc13)OCCO2 [CBK287496]	69.6%
c1ccc2c(c1)CCN(c1nc3cc4c(cc3s1)OCCO4)C2 [CBK287498]	82.8%

SMILES	viability at 28.5 h, 10 µM
CCn1c(C2CC(=O)N(c3ccc(C)cc3C)C2)nc2ccccc21 (stereo not drawn) [CBK287505]	83.1%
O=c1cc(N2CCN(c3ccccc3)CC2)[nH]c(=O)n1-c1ccccc1Cl [CBK287506]	101%
O=c1cc(Nc2ccc3c(c2)OCO3)[nH]c(=O)n1-c1ccc(Cl)cc1 [CBK287507]	86.6%
Cc1ccccc1-n1c(=O)cc(N2CCN(c3ccc(F)cc3)CC2)[nH]c1=O [CBK287508]	95.1%
O=C(CSc1ncnc2ccccc12)NCc1ccco1 [CBK287509]	98.8%
O=C(CSc1ncnc2ccccc12)Nc1nc2ccccc2s1 [CBK287510]	85.5%
CC1CCN(C(=O)CSc2ccc3nnc(-c4ccccc4)n3n2)CC1 [CBK287512]	77.9%
O=C(CSc1ccc2nnc(-c3ccccc3)n2n1)Nc1ccccc1 [CBK287513]	82.7%
O=C(CSc1ccc2nnc(-c3ccccc3)n2n1)Nc1nccs1 [CBK287516]	98.6%
Cc1ccc(-c2nnc3ccc(SCC(=O)NC4CCCC4)nn23)cc1 [CBK287523]	88.8%
CC(=O)C(Sc1ccc2nnc(-c3ccc(C)cc3)n2n1)C(C)=O [CBK287525]	98.9%
O=C(Cn1cnc2c(cnn2-c2ccccc2)c1=O)N1CCc2ccccc21 [CBK287529]	91.7%
Cc1ccccc1NC(=O)Cn1cnc2c(cnn2-c2ccccc2)c1=O [CBK287530]	104%
Cc1ccc(-n2ncc3c(=O)n(CC(=O)N4CCCCC4)cnc32)cc1 [CBK287532]	101%
Cc1ccc(NC(=O)Cn2cnc3c(cnn3-c3ccc(C)cc3)c2=O)cc1 [CBK287534]	104%
Cc1ccc(-n2ncc3c(=O)n(CC(=O)NC4CCCCC4)cnc32)cc1 [CBK287536]	78.1%
Cc1ccc(-n2ncc3c(=O)n(CC(=O)Nc4ccccc4)cnc32)cc1C [CBK287539]	87.3%
Cc1ccc(Cn2cnc3c(cnn3-c3ccc(C)c(C)c3)c2=O)cc1 [CBK287540]	108%
CC(C)(C)n1ncc2c(=O)n(CC(=O)Nc3ccccc3)cnc21 [CBK287541]	115%
Cc1ccc(-n2nnc3c(SCC(=O)Nc4ccc(F)cc4)ncnc32)cc1 [CBK287542]	112%
COc1cccc(-n2nnc3c(SCC(N)=O)ncnc32)c1 [CBK287543]	75%
O=S(=O)(NCCc1csc(-c2cccnc2)n1)c1cccnc1 [CBK287546]	91.8%
O=S(=O)(Nc1ccc(-c2nc3cccnc3s2)cc1)c1ccccc1 [CBK287547]	116%
COc1ccc(-n2c(=O)[nH]cc(C(=O)Nc3cccc(Cl)c3C)c2=O)cc1 [CBK287549]	118%

SMILES	viability at 28.5 h, 10 µM
Cc1ccc(-n2c(=O)[nH]cc(C(=O)Nc3ccc(C)c(F)c3)c2=O)cc1C [CBK287550]	97.5%
Cc1ccc(-n2c(=O)[nH]cc(C(=O)Nc3cccc(Cl)c3C)c2=O)cc1C [CBK287551]	101%
CCOc1ccc(NC(=O)c2c[nH]c(=O)n(-c3ccc(F)cc3)c2=O)cc1 [CBK287553]	107%
CCNC(=O)c1cc2c(=O)n3ccccc3nc2n1C [CBK287556]	104%
O=C(Cn1cnc2c(oc3ccccc32)c1=O)Nc1ccc2c(c1)OCO2 [CBK287557]	118%
CC1(C)CC(=O)c2sc(NC(=O)CN3C(=O)CCC3=O)nc2C1 [CBK287558]	98.2%
CCC(=O)Nc1ccc(-c2nc3ccccc3[nH]2)cc1 [CBK287561]	98.7%
O=C(Nc1nc(-c2cccnc2)cs1)c1ccccc1 [CBK287569]	91.3%
CC(=O)Nc1ccc2nc(NC(=O)c3ccc4c(c3)OCCO4)sc2c1 [CBK287571]	101%
O=C(O)CCCNc1ncnc2c1oc1ccccc12 [CBK287573]	101%
COc1ccc(-n2c(=O)c3ccccc3n(CC(=O)NC3CCCC3)c2=O)cc1 [CBK287574]	92.2%
Cn1cnnc1SCC(=O)N1CCc2ccccc21 [CBK287576]	82.7%
COc1cc(C)c(C)cc1S(=O)(=O)n1cnc2ccccc21 [CBK287578]	89.2%
COc1cc(C)c(C)cc1S(=O)(=O)n1ccnc1C [CBK287579]	108%
OCCN1CCN(c2ncnc3scc(-c4ccccc4)c23)CC1 [CBK287582]	94.6%
COCCNc1ncnc2sc3c(c12)CCCC3 [CBK287583]	98.4%
O=C(CSc1nnc(-c2ccncc2)o1)Nc1ccccc1 [CBK287586]	91.3%
COc1ccc(C(=O)Nc2nnc(-c3ccccc3OC)o2)cc1OC [CBK287589]	86.3%
COc1ccccc1-c1nnc(NC(=O)COc2ccccc2)o1 [CBK287590]	106%
COc1ccc(-c2nnc(NC(=O)C3CCCCC3)o2)cc1 [CBK287592]	83.3%
CCCC(=O)Nc1nnc(-c2ccc(Cl)cc2)o1 [CBK287594]	91.8%
O=C(Nc1nnc(-c2ccccc2)o1)c1ccc2ncsc2c1 [CBK287598]	94.4%
O=C(COc1ccccc1)Nc1nnc(-c2ccccc2)o1 [CBK287599]	99.8%
CN(C)c1cccc(C(=O)Nc2nc3ccc(S(N)(=O)=O)cc3s2)c1 [CBK287602]	95.8%

SMILES	viability at 28.5 h, 10 µM
Cc1ccc(C(=O)Nc2nc3ccc(S(=O)(=O)N(C)C)cc3s2)cc1 [CBK287603]	93.1%
O=S(=O)(c1ccccc1)c1nc(-c2ccco2)oc1NCc1cccnc1 [CBK287610]	69.5%
OCCN1CCN(C(c2ccccc2)c2sc3ncnn3c2O)CC1 (stereo not drawn) [CBK287611]	82.5%
Cc1cc(C)c2sc(NC(=O)c3ccccc3)nc2c1 [CBK287614]	104%
O=C(Nc1nc2c(F)cc(F)cc2s1)c1ccc(F)cc1 [CBK287617]	101%
O=C(CSc1ccc2nnc(-c3ccccn3)n2n1)N1CCCCC1 [CBK287621]	101%
CCCCC(Sc1ccc2nnc(-c3ccccn3)n2n1)C(=O)O (stereo not drawn) [CBK287622]	112%
CCC(Sc1ccc2nnc(-c3cccnc3)n2n1)C(=O)O (stereo not drawn) [CBK287623]	110%
CC(=O)Nc1nnc(SCC(=O)NCc2ccc3c(c2)OCO3)s1 [CBK287626]	94%
NC(=O)CSc1nnc(NC(=O)c2ccc(Cl)cc2Cl)s1 [CBK287627]	86.4%
NC(=O)CSc1nnc(NC(=O)c2ccccc2)s1 [CBK287628]	92.8%
Cc1ccc(C(=O)NCCc2nnc3ccc(Cl)nn23)cc1 [CBK287636]	89.5%
c1ccc(CSc2ccc(-c3ccncc3)nn2)nc1 [CBK287638]	101%
CCn1c(SCc2cccnc2)nc2c(c1=O)SC(C)C2 (stereo not drawn) [CBK287643]	87.7%
COc1ccnc2c1c(=O)n(Cc1ccc(Cl)cc1)c(=O)n2C [CBK287645]	66.9%
Fc1ccc2nc(NCC3CCCO3)sc2c1 (stereo not drawn) [CBK287647]	110%
COc1ccc(NC(=O)Cc2csc(NC(=O)c3ccco3)n2)c(OC)c1 [CBK287649]	91.7%
Cc1cc(NC(=O)c2ccccc2)n(-c2nc(C)c(C)c(=O)[nH]2)n1 [CBK287655]	105%
Cc1ccc(S(=O)(=O)Nc2ccc3c(c2)CC(=O)N3)cc1 [CBK287657]	92.1%
O=C(Cc1ccccc1)Nc1nnc(Cc2ccc3c(c2)OCCO3)o1 [CBK287661]	94.2%
O=C(c1ccccc1)N1CCN(c2ccc(-n3cccn3)nn2)CC1 [CBK287662]	92.2%
